Experimental data published in patent publication US11311522B1 (Cavion, Inc., priority 2018, dated 2022).

Experiment: PN001/Part I: safety and tolerability
Assay type: in vivo, human
Description: Safety was monitored throughout by adverse events, vital signs, and repeated clinical and laboratory evaluations. […] All adverse events were mild or moderate and severity and transient.

In the case of `CC(C)c1ccc(CC(=O)N[C@H](C)c2ccc(OCC(F)(F)F)cn2)cc1` [CX-8998], the Abnormal physical sensation (12 mg) is reported as 0 n (%), the “At least 1 adverse event” value (12 mg) is reported as 9 (75.0) n (%) and the Dizziness (12 mg) is reported as 1 (8.3) n (%). The Drowsiness (12 mg) was 1 (8.3) n (%), the Elevated mood (12 mg) was 1 (8.3) n (%) and the Euphoric mood (12 mg) was 2 (16.7) n (%). For the same molecule, the “Eye Disorders” value (12 mg) was 1 (8.3) n (%), the Fatigue (12 mg) was 0 n (%) and the Feeling abnormal (12 mg) was 2 (16.7) n (%). For the same molecule, the Floating feeling (12 mg) was 0 n (%), the “Gastro-intestinal Disorders” value (12 mg) was 3 (25.0) n (%) and the Hangover effect (12 mg) was 0 n (%). For the same molecule, the Headache (12 mg) was 2 (16.7) n (%), the Indifference (12 mg) was 0 n (%) and the “Injury, Poisoning and Procedural Complications” value (12 mg) was 0 n (%). The Insomnia (12 mg) was 0 n (%), the Intoxication (12 mg) was 0 n (%) and the Irritability (12 mg) was 0 n (%). For the same molecule, the Lethargy (12 mg) was 1 (8.3) n (%), the “Nervous System Disorders” value (12 mg) was 5 (41.7) n (%) and the Paraesthesia (12 mg) was 0 n (%). For the same molecule, the Paraesthesia oral (12 mg) was 1 (8.3) n (%), the Paraesthesia tongue (12 mg) was 2 (16.7) n (%) and the “Psychiatric Disorders” value (12 mg) was 4 (33.3) n (%). The Racing thoughts (12 mg) was 1 (8.3) n (%), the Relaxed (12 mg) was 4 (33.3) n (%) and the Sensory disturbance (12 mg) was 0 n (%). The Vision blurred (12 mg) was 0 n (%), the Visual disturbance (12 mg) was 1 (8.3) n (%) and the Vivid dreams (12 mg) was 0 n (%). For the same molecule, the Abnormal physical sensation (12 mg evening) was 0 n (%), the “At least 1 adverse event” value (12 mg evening) was 4 (66.7) n (%) and the Dizziness (12 mg evening) was 0 n (%). For the same molecule, the Drowsiness (12 mg evening) was 1 (16.7) n (%), the Elevated mood (12 mg evening) was 0 n (%) and the Euphoric mood (12 mg evening) was 0 n (%). The “Eye Disorders” value (12 mg evening) was 3 (50.0) n (%), the Fatigue (12 mg evening) was 0 n (%) and the Feeling abnormal (12 mg evening) was 0 n (%). The Floating feeling (12 mg evening) was 0 n (%), the “Gastro-intestinal Disorders” value (12 mg evening) was 1 (16.7) n (%) and the Hangover effect (12 mg evening) was 0 n (%). For the same molecule, the Headache (12 mg evening) was 1 (16.7) n (%), the Indifference (12 mg evening) was 0 n (%) and the “Injury, Poisoning and Procedural Complications” value (12 mg evening) was 0 n (%). For the same molecule, the Insomnia (12 mg evening) was 0 n (%), the Intoxication (12 mg evening) was 0 n (%) and the Irritability (12 mg evening) was 0 n (%). The Lethargy (12 mg evening) was 1 (16.7) n (%), the “Nervous System Disorders” value (12 mg evening) was 3 (50.0) n (%) and the Paraesthesia (12 mg evening) was 0 n (%). For the same molecule, the Paraesthesia oral (12 mg evening) was 0 n (%), the Paraesthesia tongue (12 mg evening) was 1 (16.7) n (%) and the “Psychiatric Disorders” value (12 mg evening) was 2 n (%). For the same molecule, the Racing thoughts (12 mg evening) was 0 n (%), the Relaxed (12 mg evening) was 0 n (%) and the Sensory disturbance (12 mg evening) was 0 n (%). The Vision blurred (12 mg evening) was 0 n (%), the Visual disturbance (12 mg evening) was 3 (50.0) n (%) and the Vivid dreams (12 mg evening) was 2 n (%). The Abnormal physical sensation (16 mg evening) was 0 n (%), the “At least 1 adverse event” value (16 mg evening) was 9 (75.0) n (%) and the Dizziness (16 mg evening) was 1 (8.3) n (%). For the same molecule, the Drowsiness (16 mg evening) was 1 (8.3) n (%), the Elevated mood (16 mg evening) was 3 (25.0) n (%) and the Euphoric mood (16 mg evening) was 3 (25.0) n (%). The “Eye Disorders” value (16 mg evening) was 1 (8.3) n (%), the Fatigue (16 mg evening) was 2 (16.7) n (%) and the Feeling abnormal (16 mg evening) was 0 n (%). For the same molecule, the Floating feeling (16 mg evening) was 1 (8.3) n (%), the “Gastro-intestinal Disorders” value (16 mg evening) was 1 (8.3) n (%) and the Hangover effect (16 mg evening) was 2 (16.7) n (%). The Headache (16 mg evening) was 4 (33.3) n (%), the Indifference (16 mg evening) was 2 (16.7) n (%) and the “Injury, Poisoning and Procedural Complications” value (16 mg evening) was 0 n (%). For the same molecule, the Insomnia (16 mg evening) was 0 n (%), the Intoxication (16 mg evening) was 0 n (%) and the Irritability (16 mg evening) was 1 (8.3) n (%). The Lethargy (16 mg evening) was 1 (8.3) n (%), the “Nervous System Disorders” value (16 mg evening) was 8 (66.7) n (%) and the Paraesthesia (16 mg evening) was 1 (8.3) n (%). The Paraesthesia oral (16 mg evening) was 0 n (%), the Paraesthesia tongue (16 mg evening) was 0 n (%) and the “Psychiatric Disorders” value (16 mg evening) was 8 (66.7) n (%). The Racing thoughts (16 mg evening) was 2 (16.7) n (%), the Relaxed (16 mg evening) was 2 (16.7) n (%) and the Sensory disturbance (16 mg evening) was 1 (8.3) n (%). For the same molecule, the Vision blurred (16 mg evening) was 1 (8.3) n (%), the Visual disturbance (16 mg evening) was 0 n (%) and the Vivid dreams (16 mg evening) was 8 (66.7) n (%). For the same molecule, the Abnormal physical sensation (20 mg evening) was 1 (16.7) n (%), the “At least 1 adverse event” value (20 mg evening) was 6 (100) n (%) and the Dizziness (20 mg evening) was 0 n (%). For the same molecule, the Drowsiness (20 mg evening) was 2 (33.3) n (%), the Elevated mood (20 mg evening) was 1 (16.7) n (%) and the Euphoric mood (20 mg evening) was 3 (50.0) n (%). The “Eye Disorders” value (20 mg evening) was 1 (16.7) n (%), the Fatigue (20 mg evening) was 0 n (%) and the Feeling abnormal (20 mg evening) was 0 n (%). For the same molecule, the Floating feeling (20 mg evening) was 0 n (%), the “Gastro-intestinal Disorders” value (20 mg evening) was 0 n (%) and the Hangover effect (20 mg evening) was 0 n (%). For the same molecule, the Headache (20 mg evening) was 5 (83.3) n (%), the Indifference (20 mg evening) was 0 n (%) and the “Injury, Poisoning and Procedural Complications” value (20 mg evening) was 2 (33.3) n (%). For the same molecule, the Insomnia (20 mg evening) was 1 (16.7) n (%), the Intoxication (20 mg evening) was 2 (33.3) n (%) and the Irritability (20 mg evening) was 1 (16.7) n (%). The Lethargy (20 mg evening) was 2 (33.3) n (%), the “Nervous System Disorders” value (20 mg evening) was 6 (100) n (%) and the Paraesthesia (20 mg evening) was 1 (16.7) n (%). The Paraesthesia oral (20 mg evening) was 0 n (%), the Paraesthesia tongue (20 mg evening) was 0 n (%) and the “Psychiatric Disorders” value (20 mg evening) was 5 (83.3) n (%). For the same molecule, the Racing thoughts (20 mg evening) was 0 n (%), the Relaxed (20 mg evening) was 4 (66.7) n (%) and the Sensory disturbance (20 mg evening) was 2 (33.3) n (%). For the same molecule, the Vision blurred (20 mg evening) was 1 (16.7) n (%), the Visual disturbance (20 mg evening) was 0 n (%) and the Vivid dreams (20 mg evening) was 2 (33.3) n (%). The Abnormal physical sensation (24 mg evening) was 0 n (%), the “At least 1 adverse event” value (24 mg evening) was 6 (100) n (%) and the Dizziness (24 mg evening) was 1 (16.7) n (%). For the same molecule, the Drowsiness (24 mg evening) was 3 (50.0) n (%), the Elevated mood (24 mg evening) was 0 n (%) and the Euphoric mood (24 mg evening) was 1 (16.7) n (%). The “Eye Disorders” value (24 mg evening) was 2 (33.3) n (%), the Fatigue (24 mg evening) was 0 n (%) and the Feeling abnormal (24 mg evening) was 1 (16.7) n (%). The Floating feeling (24 mg evening) was 1 (16.7) n (%), the “Gastro-intestinal Disorders” value (24 mg evening) was 0 n (%) and the Hangover effect (24 mg evening) was 0 n (%). The Headache (24 mg evening) was 6 (100) n (%), the Indifference (24 mg evening) was 0 n (%) and the “Injury, Poisoning and Procedural Complications” value (24 mg evening) was 0 n (%). For the same molecule, the Insomnia (24 mg evening) was 1 (16.7) n (%), the Intoxication (24 mg evening) was 0 n (%) and the Irritability (24 mg evening) was 0 n (%). For the same molecule, the Lethargy (24 mg evening) was 1 (16.7) n (%), the “Nervous System Disorders” value (24 mg evening) was 6 (100) n (%) and the Paraesthesia (24 mg evening) was 1 (16.7) n (%). The Paraesthesia oral (24 mg evening) was 0 n (%), the Paraesthesia tongue (24 mg evening) was 0 n (%) and the “Psychiatric Disorders” value (24 mg evening) was 4 (66.7) n (%). For the same molecule, the Racing thoughts (24 mg evening) was 1 (16.7) n (%), the Relaxed (24 mg evening) was 0 n (%) and the Sensory disturbance (24 mg evening) was 0 n (%). For the same molecule, the Vision blurred (24 mg evening) was 1 (16.7) n (%), the Visual disturbance (24 mg evening) was 0 n (%) and the Vivid dreams (24 mg evening) was 2 (33.3) n (%). The Abnormal physical sensation (any dose) was 2 (9.1) n (%), the “At least 1 adverse event” value (any dose) was 19 (86.4) n (%) and the Dizziness (any dose) was 2 (9.1) n (%). For the same molecule, the Drowsiness (any dose) was 7 (31.8) n (%), the Elevated mood (any dose) was 6 (27.3) n (%) and the Euphoric mood (any dose) was 8 (36.4) n (%). For the same molecule, the “Eye Disorders” value (any dose) was 9 (40.9) n (%), the Fatigue (any dose) was 2 (9.1) n (%) and the Feeling abnormal (any dose) was 4 (18.2) n (%). The Floating feeling (any dose) was 2 (9.1) n (%), the “Gastro-intestinal Disorders” value (any dose) was 4 (18.2) n (%) and the Hangover effect (any dose) was 2 (9.1) n (%). The Headache (any dose) was 10 (45.5) n (%), the Indifference (any dose) was 2 (9.1) n (%) and the “Injury, Poisoning and Procedural Complications” value (any dose) was 2 (9.1) n (%). The Insomnia (any dose) was 2 (9.1) n (%), the Intoxication (any dose) was 2 (9.1) n (%) and the Irritability (any dose) was 2 (9.1) n (%). For the same molecule, the Lethargy (any dose) was 3 (13.6) n (%), the “Nervous System Disorders” value (any dose) was 16 (72.7) n (%) and the Paraesthesia (any dose) was 2 (9.1) n (%). For the same molecule, the Paraesthesia oral (any dose) was 2 (9.1) n (%), the Paraesthesia tongue (any dose) was 2 (9.1) n (%) and the “Psychiatric Disorders” value (any dose) was 15 (68.2) n (%). For the same molecule, the Racing thoughts (any dose) was 4 (18.2) n (%), the Relaxed (any dose) was 9 (40.9) n (%) and the Sensory disturbance (any dose) was 3 (13.6) n (%). For the same molecule, the Vision blurred (any dose) was 4 (18.2) n (%), the Visual disturbance (any dose) was 4 (18.2) n (%) and the Vivid dreams (any dose) was 11 (50.0) n (%). For the same molecule, the Tolerability (single doses) was “Single doses up to 16 mg were generally well tolerated”.
